From patent publication US20130123298A1, “PHARMACEUTICAL COMPOSITION FOR THE PREVENTION OF PERIOPERATIVE ARTERIAL HYPOTENSION IN HUMANS” (LABORATOIRE AGUETTANT, priority 2010, published 2013)

System: adult patients under general anesthetic in noncardiac surgery
Type: in vivo, human
Experimental: The study covered 1,534 patients having received perioperative hemodynamic optimization with use of noradrenaline (in the form of noradrenaline tartrate) to maintain blood pressure under general anesthetic in noncardiac surgery in adults.
The hemodynamic surveillance is performed non-invasively as blood pressure is taken automatically every 2 minutes when inducing anesthesia, then every 5 minutes during the hemodynamic stability period.
Administration of noradrenaline in continuous perfusion with the solution titered at 10 μg/mL.
This solution is injected: • firstly as a continuous perfusion, in an automatic syringe pump, whose speed will be modulated as a function of the weight, age, and initial “blood pressure state” of the patient (notion of treated or untreated hypertension), of the presence or absence of epidural anesthesia combined with general anesthesia. • secondly as an isolated perfusion to prevent causing a bolus of NA during the injection of another drug in the perfusion tubing. This isolated perfusion is branched either on an extra venous catheter independent of the venous access used for the anesthetic, or on a multi-lumen catheter of a central venous path, or on a three-way tap located between the peripheral venous catheter and the end of the perfusion tubing.
The recommended dosages are 0.02 to 0.08 μg/kg/min of noradrenaline.
The suitable dosage is that which delivers blood pressure similar, within a limit of 20% of the preoperative blood pressure of the patient, and systolic blood pressure >100 mmHg
For general anesthetic, noradrenaline administration by continuous perfusion with the solution titered at 10 μg/mL must be started 3 to 4 minutes before inducing anesthesia to prevent hypotension caused by the anesthetic.
The patient is weaned off noradrenaline during the emergence phase by progressively reducing noradrenaline administration dosages as a function of how well the patient is returning to the preoperative blood pressure.
The study covered 1,534 patients 15 to 102 years old (average age 56 years old), with average weight 72 kg (extremes from 33 to 163 kg), mean preoperative blood pressure 138 mmHg (from 95 to 200 mmHg).
The induction procedure for general anesthetic is the same for all the patients: the patients receive 0.2 μg/kg of sufentanil, after 3 minutes 1.5 to 3 mg/kg propofol, then 0.15 mg/kg of cisatracurium.
The patients are intubated 3 minutes after the curare injection and ventilated with 8 mL/kg of theoretical weight.
Anesthesia is maintained using sevoflurane. The perioperative analgesia is handled by continuous injection of remifentanil and/or by iterative injection of sufentanil.
A continuous perfusion of noradrenaline in solution at 10 μg/mL of noradrenaline is administered 4 minutes before inducing anesthesia.
The dosages used are generally comprised between 0.02 and 0.08 μg/kg/min.
The patient is weaned off the continuous perfusion of the noradrenaline solution at 10 μg/mL in the emergence phase by progressively reducing the noradrenaline administration dosages as a function of how well the patient is returning to the preoperative blood pressure.
Clinically: non-invasive blood pressure surveillance is performed every 2 minutes when inducing anesthesia, then every 5 minutes during the hemodynamic stability period.
The quality of the perioperative hemostasis was always noted.
The following elements are systematically monitored and noted in the first 24 hours postoperative: agitation when waking, postoperative nausea and/or vomiting (PONY).
Biologically: troponin was assayed at D1 in 26.0% of patients judged to be at risk: 99.87% were at zero, one patient has a troponine assay at 0.04 and one patient at 0.05 μg/mL (significance threshold is 0.4 μg/mL). These patients were controlled again and their level had normalized at D2.
Urea and creatinine assay on D0 and D1 performed on 26.0% of the patients judged to be at higher risk. […]

[1] = general anesthetic combined with epidural anesthetic

With `NC[C@H](O)c1ccc(O)c(O)c1` [noradrenaline, 4-[(1R)-2-amino-1-hydroxyethyl]benzene-1,2-diol] the “effect on blood pressure” value (continuous injection) was “immediate, brief, but without tachyphylaxis, long-lasting in continuous injection, rapidly reversible”, the “perioperative blood pressure control” value (five elderly patients with aortal stenosis and hip fracture, general anesthesia) was “controlled perioperative blood pressure during general anesthesia without cardiac incidents” and the “duration of blood pressure control” value [1] was “up to 400 min”. The “tachyphylaxis and vascular filling during prolonged blood pressure control” value [1] was “without tachyphylaxis and without excess vascular filling”, the blood pressure control (hemodialyzed patients with renal failure, 0.05 to 0.08 μg/kg/min) was “blood pressure could be controlled” and the “cases of superficial venous thromboses detected” value (human, in vivo) was “five”. For the same compound, the “hypertension needing nicardipine 1 mg bolus as last resort” value (human, in vivo) was 26 cases, the other undesirable effects (human, in vivo) was “No other undesirable effect” and the “patients with troponin at zero” value (human, in vivo) was 99.87%. For the same compound, the perioperative urine flows (human, in vivo) was “net increase”, the postoperative vomiting (human, in vivo) was “none of the patients” and the “renal function (urea and creatinine assay)” value (human, in vivo) was “no changes to renal function”. The “urea and creatinine postoperative value” (human, in vivo) was “reduction of their postoperative value at D1”, the postoperative nausea (human, in vivo, 24 h) was 1.2% and the “distal peripheral venous thrombosis complications” value (human, in vivo, 4 day) was 0.32%. The “lucidity at emergence and absence of agitation” value (independent of duration of intervention and patient age) was “noted in all patients”, the “health risk and surgical outcomes” value (patients over 80 years old (8.5%)) was “the health risk was controlled and surgical outcomes were simple” and the quality of emergence (young patients without history, 0.02 μg/kg/h) was “better lucidity and quasi-disappearance of postoperative nausea and vomiting”.
